Our source for the Kd values is BindingDB's records for doi:10.1016/j.bmcl.2010.05.049 (University of Athens, 2010).

For orientation: Kd means a measure of binding affinity in units of concentration. Higher therefore signals weaker binding.

The test is described as follows: Binding affinity to Influenza A Weybridge(H7N7) virus Matrix protein 2 by spectrophotometry.
The molecule `C1CCC2(NC1)C1CC3CC(C1)CC2C3` (stereo unspecified) came in with a Kd of 0.39 µM.

The molecule `CC1CCC2(N1)C1CC3CC(C1)CC2C3` (stereo unspecified) registered a Kd of 1.5 µM.

`C1CNC2(C1)C1CC3CC(C1)CC2C3` (stereo unspecified) showed a Kd of 1.16 µM.

Molecule `CC1(N)C2CC3CC(C2)CC1C3` (stereo unspecified) came in with an equilibrium dissociation constant (Kd) of 3.6 µM.

For `C1CCC(C23CC4CC(CC(C4)C2)C3)NC1` (stereo unspecified), the equilibrium dissociation constant (Kd) was found to be 1.51 µM.

Regarding `NC12CC3CC(C1)CC(F)(C3)C2`, the Kd was 4.86 µM.

In turn, `CCC1(N)C2CC3CC(C2)CC1C3` (stereo unspecified) gave a Kd of 6.7 µM.

Take `O=C1CCC2(N1)C1CC3CC(C1)CC2C3` (stereo unspecified): binding was put at a Kd of 1.49 µM.

`CCC1CCC2(N1)C1CC3CC(C1)CC2C3` (stereo unspecified) showed a Kd of 5.58 µM.

In the case of `CCCC1(N)C2CC3CC(C2)CC1C3` (stereo unspecified), binding was put at a Kd of 8.71 µM.

With `C1CNC(C23CC4CC(CC(C4)C2)C3)C1` (stereo unspecified), binding was characterised by a dissociation constant (Kd) of 0.51 µM.

With `CN1CCCC12C1CC3CC(C1)CC2C3` (stereo unspecified), the Kd came out at 2.93 µM.

On to `NC1C2CC3CC(C2)CC1C3` (stereo unspecified) [2-Adamantanamine], for which binding was characterised by a dissociation constant (Kd) of 2.36 µM.

In turn, `NC1CCCCCC1` [Cycloheptanamine] displayed a Kd of 16.2 µM.

In turn, `NC1CCCCCCC1` [Cyclooctanamine] yielded a Kd of 1.83 µM.

In the case of `NC12CC3CC(CC(C3)C1)C2` [SYMADINE], binding was put at a Kd of 0.32 µM.
